Test results as given in patent US8975417B2, “Pyrazolopyrrolidine derivatives and their use in the treatment of disease” (Novartis AG, priority 2013, dated 2015).

Assays:
[1] = molecular target: His-CREBBP (1081-1197) bromodomain (Homo sapiens (Human), UniProt Q92793); experiment: AlphaScreen in-vitro binding assay for CREBBP; settings: biochemical
Method in brief: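 Ni-chelate acceptor and streptavidin donor beads (45 µg/mL each, in 50 mM HEPES pH 7.5, 150 mM NaCl, 0.02% BSA) were then added for 60 min at room temperature. IC50 came from 8-point non-linear regression.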

[2] = test system: MV-4-11 cells; experiment: Cell growth inhibition assay (CellTiter-Glo), MV-4-11; assay type: cell-based; settings: Homo sapiens, MV4-11, read-out: MV-4-11 TGI
Method in brief: (§1)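 CTG luminescence (cellular ATP) after compound treatment; values background- and day 0-corrected, vehicle (0.1% DMSO) = 100%, medium only = −100%. Dose range: 3-fold dilutions from 10 μM. IC50/TGI by 4-parameter fit.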

[3] = molecular target: nuclear BRD4-NUT foci in HCC2494 NUT midline carcinoma cells (Homo sapiens (Human), UniProt O60885+Q86Y26); experiment: Nut-foci formation assay; assay type: cell-based; settings: 24 hours, read-out: HCS Brd4-NUT IC50
Method in brief: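 Read-out is number and intensity of nuclear NUT foci by immunofluorescence imaging, relative to 0.1% DMSO set as 100. Compounds were tested as 3-fold series starting at 10 μM on HCC2494 NUT midline carcinoma cells for 24 h. Four-parameter fitting gave IC50.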

[4] = test system: K-562 cells; experiment: Cell growth inhibition assay (CellTiter-Glo), K-562; assay type: cell-based, human; settings: Homo sapiens, K562, read-out: K-562 TGI
Method in brief: as §1

Chain of His-CREBBP (1081-1197) bromodomain (Q92793 1081-1197): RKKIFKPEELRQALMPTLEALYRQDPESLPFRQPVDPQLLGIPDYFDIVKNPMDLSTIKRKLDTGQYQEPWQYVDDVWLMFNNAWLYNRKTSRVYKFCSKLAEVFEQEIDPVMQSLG

Compound	IC50 [1] [nM]	IC50 [3] [nM]	IC (total growth inhibition) [2] [µM]	IC (total growth inhibition) [4] [µM]
CC(=O)Nc1cc(N2C(=O)c3c(c(C)nn3C3CC3)C2c2ccc(Cl)cc2)nn2c(C)nnc12 (stereo not shown) [Example 126, N-(6-(4-(4-chlorophenyl)-1-cyclopropyl-3-methyl-6-oxopyrrolo[3,4-c]pyrazol-5-(1H,4H,6H)-yl)-3-methyl-[1,2,4]triazolo[4,3-b]pyridazin-8-yl)acetamide]	> 37000	587	0.682	> 10
COc1ncccc1-n1nc(C)c2c1C(=O)N(c1cc(C)c(=O)n(C)c1)[C@H]2c1ccc(Cl)cc1 [Example 127, (S)-4-(4-chlorophenyl)-5-(1,5-dimethyl-6-oxo-1,6-dihydropyridin-3-yl)-1-(2-methoxypyridin-3-yl)-3-methyl-4,5-dihydropyrrolo[3,4-c]pyrazol-6(1H)-one]	> 37000	> 10000	4.49	> 10
COc1ncccc1-n1nc(C)c2c1C(=O)N(c1cc(C)c(=O)n(C)c1)[C@@H]2c1ccc(Cl)cc1 [Example 128, (R)-4-(4-chlorophenyl)-5-(1,5-dimethyl-6-oxo-1,6-dihydropyridin-3-yl)-1-(2-methoxypyridin-3-yl)-3-methyl-4,5-dihydropyrrolo[3,4-c]pyrazol-6(1H)-one]	3700	53.3	0.0734	> 10
COCc1nn(C2CC2)c2c1C(c1ccc(Cl)cc1)N(c1cc(C)c3nnc(C)n3c1)C2=O (stereo not shown) [Example 130, 4-(4-chlorophenyl)-1-cyclopropyl-5-(3,8-dimethyl-[1,2,4]triazolo[4,3-a]pyridin-6-yl)-3-(methoxymethyl)-4,5-dihydropyrrolo[3,4-c]pyrazol-6(1H)-one]	19000	13.9	0.0267	> 10
Cc1cc(N2C(=O)c3c(c(CO)nn3C3CC3)C2c2ccc(Cl)cc2)cn2c(C)nnc12 (stereo not shown) [Example 131, 4-(4-chlorophenyl)-1-cyclopropyl-5-(3,8-dimethyl-[1,2,4]triazolo[4,3-a]pyridin-6-yl)-3-(hydroxymethyl)-4,5-dihydropyrrolo[3,4-c]pyrazol-6(1H)-one]	30000	27.7	0.0405	> 10
Cc1nn(C2COC2)c2c1C(c1ccc(Cl)cc1)N(c1cc(C)c(=O)n(C)c1)C2=O (stereo not shown) [Example 135, 4-(4-chlorophenyl)-5-(1,5-dimethyl-6-oxo-1,6-dihydropyridin-3-yl)-3-methyl-1-(oxetan-3-yl)-4,5-dihydropyrrolo[3,4-c]pyrazol-6(1H)-one]	> 37000	93.4	0.126	> 10
Cc1cc(N2C(=O)c3nn(C4COC4)c(C)c3C2c2ccc(Cl)cc2)cn2c(C)nnc12 (stereo not shown) [Example 136, 4-(4-chlorophenyl)-5-(3,8-dimethyl-[1,2,4]triazolo[4,3-a]pyridin-6-yl)-3-methyl-2-(oxetan-3-yl)-4,5-dihydropyrrolo[3,4-c]pyrazol-6(2H)-one]	4300	92.8	0.041	> 10
Cc1nn(C2COC2)c2c1C(c1ccc(Cl)cc1)N(c1cc(C)c3nnc(C)n3c1)C2=O (stereo not shown) [Example 137, 4-(4-chlorophenyl)-5-(3,8-dimethyl-[1,2,4]triazolo[4,3-a]pyridin-6-yl)-3-methyl-1-(oxetan-3-yl)-4,5-dihydropyrrolo[3,4-c]pyrazol-6(1H)-one]	> 37000	57.7	0.0421	> 10
Cc1nn(C2CN(C)C2)c2c1C(c1ccc(Cl)cc1)N(c1cc(C)c(=O)n(C)c1)C2=O (stereo not shown) [Example 140, 4-(4-chlorophenyl)-5-(1,5-dimethyl-6-oxo-1,6-dihydropyridin-3-yl)-3-methyl-1-(1-methylazetidin-3-yl)-4,5-dihydropyrrolo[3,4-c]pyrazol-6(1H)-one]	15000	435	0.154	> 10
Cc1cc(N2C(=O)c3nn(C(=O)N(C)C)c(C)c3C2c2ccc(Cl)cc2)cn(C)c1=O (stereo not shown) [Example 141, 4-(4-chlorophenyl)-5-(1,5-dimethyl-6-oxo-1,6-dihydropyridin-3-yl)-N,N,3-trimethyl-6-oxo-5,6-dihydropyrrolo[3,4-c]pyrazole-2(4H)-carboxamide]	1500	231	0.222	> 10
Cc1nn(C(=O)N(C)C)c2c1C(c1ccc(Cl)cc1)N(c1cc(C)c(=O)n(C)c1)C2=O (stereo not shown) [Example 142, 4-(4-chlorophenyl)-5-(1,5-dimethyl-6-oxo-1,6-dihydropyridin-3-yl)-N,N,3-trimethyl-6-oxo-5,6-dihydropyrrolo[3,4-c]pyrazole-1(4H)-carboxamide]	4600	149	0.121	> 10

Now from value to compound, other results behind:

IC50 [1] [nM]	IC50 [3] [nM]	Compound	IC (total growth inhibition) [2] [µM]	IC (total growth inhibition) [4] [µM]
> 37000	206	CNC(=O)n1nc(C)c2c1C(=O)N(c1cc(C)c(=O)n(C)c1)C2c1ccc(Cl)cc1 (stereo not shown) [Example 143, 4-(4-chlorophenyl)-5-(1,5-dimethyl-6-oxo-1,6-dihydropyridin-3-yl)-N,3-dimethyl-6-oxo-5,6-dihydropyrrolo[3,4-c]pyrazole-1(4H)-carboxamide]	0.116	> 10
> 37000	108	CNC(=O)n1nc(C)c2c1C(=O)N(c1cc(C)c3nnc(C)n3c1)C2c1ccc(Cl)cc1 (stereo not shown) [Example 145, 4-(4-chlorophenyl)-5-(3,8-dimethyl-[1,2,4]triazolo[4,3-a]pyridin-6-yl)-N,3-dimethyl-6-oxo-5,6-dihydropyrrolo[3,4-c]pyrazole-1(4H)-carboxamide]	0.093	> 10
4100	118	CCc1c2c(nn1C(=O)N(C)C)C(=O)N(c1cc(C)c(=O)n(C)c1)C2c1ccc(Cl)cc1 (stereo not shown) [Example 148, 4-(4-chlorophenyl)-5-(1,5-dimethyl-6-oxo-1,6-dihydropyridin-3-yl)-3-ethyl-N,N-dimethyl-6-oxo-5,6-dihydropyrrolo[3,4-c]pyrazole-2(4H)-carboxamide]	0.114	> 10
6900	35.3	Cc1nn(C(=O)N(C)C)c2c1[C@@H](c1ccc(Cl)cc1)N(c1cc(C)c3nnc(C)n3c1)C2=O [Example 149, (R)-4-(4-chlorophenyl)-5-(3,8-dimethyl-[1,2,4]triazolo[4,3-a]pyridin-6-yl)-N,N,3-trimethyl-6-oxo-5,6-dihydropyrrolo[3,4-c]pyrazole-1(4H)-carboxamide]	0.0505	> 10
4600	27.8	Cc1cc(N2C(=O)c3nn(C(=O)N(C)C)c(C)c3[C@H]2c2ccc(Cl)cc2)cn2c(C)nnc12 [Example 150, (R)-4-(4-chlorophenyl)-5-(3,8-dimethyl-[1,2,4]triazolo[4,3-a]pyridin-6-yl)-N,N,3-trimethyl-6-oxo-5,6-dihydropyrrolo[3,4-c]pyrazole-2(4H)-carboxamide]	0.0863	> 10
